Measurements as given in patent US20260258368A1, “METABOLIC SELECTION FOR GLYCOGEN-STORING CELLS IN VITRO” (The Board of Trustees of the Leland Stanford Junior …, priority 2023, published 2026).

Legend:
Assay in all cases: Poly(I:C) treatment, interferon-stimulated gene expression (qPCR, RNA-seq)
Conditions in all cases: 50 μg/mL poly(I:C), 1 day
[1] = test system: primary adult human hepatocytes (Lonza, Gibco); format: cell-based
Description: (§1) RNA extraction and bulk-population RNA-seq. Cells were lysed using Zymo RNA lysis buffer and total RNA was extracted from cells using the Zymo Quick RNA kit per the manufacturer's instructions. High-quality RNA with RNA integrity number (RIN)>7 was used for library construction. For each cell-type, we included 2-3 technical replicates, generally defined as different wells of the same cell-type generated in the same differentiation experiment. In one experiment, 46 RNA-seq libraries were multiplexed and then sequenced on 2 lanes of the Illumina NovaSeq 6000 S4 sequencer by Novogene to generate 150-bp paired-end reads. In a second experiment, 36 RNA-seq libraries were multiplexed and then sequenced on 1 lane of the NovaS4 sequencer by Novogene to generate 150-bp paired-end reads.
Poly(I:C) treatment. HepG2 cells, HuH7 cells, metabolically-selected H1 hPSC-and H7 hPSC-derived hepatocytes, and primary human hepatocytes (Lonza and Gibco) were thawed in a 37° C. water bath for 3 minutes. After thawing, HepG2, HuH7, and hPSC-derived hepatocytes were quenched in warm DMEM/F12 to dilute the cryopreservation solution. After thawing, primary human hepatocytes, obtained from either Lonza or Gibco, were respectively quenched in MCHT50 and CHRM to dilute the cryopreservation solution. Thawed cells were centrifuged at 1500 rpm for 5 mins and the supernatant was discarded, leaving the cell pellets. […]

HepG2 liver cancer cells = format: cell-based, human
Description: as §1
(§2) Poly(I:C) treatment. HepG2 cells, HuH7 cells, metabolically-selected H1 hPSC-and H7 hPSC-derived hepatocytes, and primary human hepatocytes (Lonza and Gibco) were thawed in a 37° C. water bath for 3 minutes. After thawing, HepG2, HuH7, and hPSC-derived hepatocytes were quenched in warm DMEM/F12 to dilute the cryopreservation solution. After thawing, primary human hepatocytes, obtained from either Lonza or Gibco, were respectively quenched in MCHT50 and CHRM to dilute the cryopreservation solution. Thawed cells were centrifuged at 1500 rpm for 5 mins and the supernatant was discarded, leaving the cell pellets. The cell pellets were resuspended in the aforementioned hepatocyte maintenance media (Lonza hepatocyte culture medium supplemented with 10 μM Dexamethasone, 10 μM Forskolin, 2 μM RO4929097, 200 μg/ml AA2P, 10 μg/ml Insulin, and 1 μM Thiazovivin [DFRAIT]). For each cell-type, ~400,000 cells were plated per well of 24-well plate that had been coated with collagen 1 (Corning Biocoat). For hPSC-derived hepatocytes, the collagen 1-coated wells were briefly treated with Geltrex prior to plating cells. The media was replenished every day for 2 days and on the third day, hepatocyte maintenance media+ DFRAIT+50 μg/ml poly(I:C) was added for 24 hours. Cells were then lysed with RNA lysis buffer (Zymo) and processed with an RNA extraction kit (Zymo) to extract RNA for qPCR and RNA-seq.

[2] = test system: hPSC-derived hepatocytes (H1 and H7 hPSC lines); format: cell-based, human
Description: as §1, §2

HuH7 liver cancer cells = format: cell-based, human
Description: as §1, §2

Q: With poly(I:C) as the substance, how does the “ISG and inflammatory cytokine expression change (RNA-seq)” value [1] read?
A: significant ISG and inflammatory cytokine upregulation

Q: And the “upregulation of interferon-stimulated genes (qPCR)” value (shortened to “upregulation”) ([1]; two hepatocyte sources)?
A: upregulated ISGs

Q: And the “ISG and inflammatory cytokine expression change (RNA-seq)” value (HepG2 liver cancer cells)?
A: minimal changes

Q: And the “upregulation” value (HepG2 liver cancer cells)?
A: largely failed to upregulate

Q: And the “ISG and inflammatory cytokine expression change (RNA-seq)” value [2]?
A: significant ISG and inflammatory cytokine upregulation

Q: What about the “induction of interferon-stimulated genes MX1, VIPERIN, IFIT1, IFIT2, IFIT3, OAS1, OASL, ISG15 (qPCR)” value ([2]; H1- and H7-derived hepatocytes) of the same substance?
A: strongly induced

Q: And the “ISG and inflammatory cytokine expression change (RNA-seq)” value (HuH7 liver cancer cells)?
A: minimal changes

Q: And the “upregulation” value (HuH7 liver cancer cells)?
A: largely failed to upregulate
